According to patent US20230203003A1, “Notch Inhibitors and Uses Thereof” (StemSynergy Therapeutics, Inc., priority 2020, published 2023):
Structures can show the parent of a compound that is named as a salt. Where two headings read alike, the source gives them in different places.

Experiments:
[1] = tested on: OE33 Esophageal Adenocarcinoma cell line; experiment: OE33 Colony Formation Assay; format: cell-based; conditions: OE33 cells, 200 cells/well, 7 days, CellTiter-Glo
Description: OE33 Colony Formation Assay
The OE33 Esophageal Adenocarcinoma cell line was cultured and plated into 96-well tissue culture plates under sparse conditions (200 cells/well). Test compounds were serially diluted in DMSO and then into culture media (final DMSO concentration = 0.1%). Compound/media was then added to cells every 48 hours for a total of 7 days. Clonogenic growth was assessed using the CellTiter-Glo reagent, according to manufacturer (Promega) specifications. Percent inhibition was calculated as the percent of luminescence normalized to control (0.1% DMSO) wells. Nonlinear regression curve fitting was performed using GraphPad Prism software to determine EC50′s.

hNotch1ICD = molecular target: T1, hNotch1ICD (Homo sapiens, UniProt P46531); experiment: Notch1 Reporter Assay (Dox-inducible Notch1-ICD, CSL-responsive luciferase in 293A cells); format: cell-based
T1 construct: pLV[Tet]-Puro-TRE3G>Notch1-ICD; expressed in transfected cells; host or cells: 293A cells
Description: 293A cells expressing 1) pCMV-Tet-On 3G, 2) pLV[Tet]-Puro-TRE3G>Notch1-ICD, 3) pLV[Tet]-Puro-TRE3G>Notch2-ICD, 4) pLV[Tet]-Puro-TRE3G>Notch3-ICD, and 5) pCSL-RElement-Luc were used. When Doxycycline is added, the Tet-ON gene activates expression of hNotch1ICD, which together with endogenous NTC components binds to CSL responsive elements (pCSL-RElement-Luc) and expresses luciferase. 1 ×× 10^4 cells are plated in 100 µL (96-well format). 24 h later, compounds (10 mM stock in DMSO) are diluted in DMSO to 200X, then added (5 ul into 1 mL) to cell culture media containing 50 ng/mL Dox. This is then added 1:1 to cells. Final DMSO = 0.25%, Dox = 25 ng/mL. After 24 h, media is discarded, and cells are lysed in passive lysis buffer (Promega). Cells are rocked at room temperature for 15 min and then lysate is divided for luciferase assay (Luciferase Assay System, Promega) and cell viability (CellTiter Glo 2.0, Promega). Raw luciferase is normalized to cell viability, and then scaled to DMSO wells. Results are analyzed and IC50′s are determined in GraphPad by nonlinear regression curve fitting (4 parameter) of dose response curves.

[2] = 293A cells, 24 h, luciferase normalized to cell viability, read-out: Notch1 Reporter Assay IC50
[3] = value printed in the synthesis heading of the compound, read-out: Notch1 Reporter Assay IC50

T1 sequence (P46531 1754-2555 limits assumed): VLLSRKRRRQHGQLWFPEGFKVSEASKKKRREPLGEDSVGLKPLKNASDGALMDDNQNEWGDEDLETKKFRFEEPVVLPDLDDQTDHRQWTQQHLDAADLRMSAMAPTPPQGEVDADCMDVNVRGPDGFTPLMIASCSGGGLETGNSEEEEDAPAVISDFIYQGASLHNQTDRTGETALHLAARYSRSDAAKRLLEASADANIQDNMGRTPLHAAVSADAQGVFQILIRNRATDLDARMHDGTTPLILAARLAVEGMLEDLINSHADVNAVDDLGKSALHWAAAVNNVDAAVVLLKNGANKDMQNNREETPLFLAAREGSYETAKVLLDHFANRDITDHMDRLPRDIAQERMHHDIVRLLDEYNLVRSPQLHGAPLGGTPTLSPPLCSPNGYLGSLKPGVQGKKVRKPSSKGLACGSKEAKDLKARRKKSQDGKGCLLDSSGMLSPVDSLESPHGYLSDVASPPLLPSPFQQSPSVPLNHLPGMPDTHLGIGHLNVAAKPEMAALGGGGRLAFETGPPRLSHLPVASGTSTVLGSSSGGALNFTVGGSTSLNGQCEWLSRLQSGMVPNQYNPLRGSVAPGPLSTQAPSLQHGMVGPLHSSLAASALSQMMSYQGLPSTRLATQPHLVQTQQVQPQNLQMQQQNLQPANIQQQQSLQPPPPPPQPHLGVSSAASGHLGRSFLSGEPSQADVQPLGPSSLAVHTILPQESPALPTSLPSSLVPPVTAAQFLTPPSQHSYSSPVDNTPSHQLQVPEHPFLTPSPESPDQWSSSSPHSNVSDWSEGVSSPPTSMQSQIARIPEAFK

Row | SMILES | EC50 ([1]; Homo sapiens, OE33, 168 h) [µM] | IC50 (hNotch1ICD; [2]) [µM] | also measured
1 | CC(C)Cn1c(=O)c(C(=O)Nc2ccccc2N2CCN(C)CC2)c(O)c2ccccc21 [568(02)] | 2.6 | 6.8 | 
2 | CC(C)Cn1c(=O)c(C(=O)Nc2ccc(N3CCN(C)CC3)cc2)c(O)c2ccccc21 [569(02)] | 1.8 | 4.9 | 
3 | CC(C)Cn1c(=O)c(C(=O)Nc2ccc(F)cc2N2CCN(C)CC2)c(O)c2ccccc21 [570(02)] | 2 | 5.6 | 
4 | CC(C)Cn1c(=O)c(C(=O)Nc2cc(F)ccc2N2CCN(C)CC2)c(O)c2ccccc21 [571(02)] | 2.5 | 7.9 | 
5 | CC(C)Cn1c(=O)c(C(=O)Nc2ccc(N3CCN(C)CC3)c(F)c2)c(O)c2ccccc21 [572(02)] | 2.2 |  | 
6 | CC(C)Cn1c(=O)c(C(=O)Nc2cccc(F)c2)c(O)c2cc(N3CCN(C)CC3)ccc21 [577(02)] | 0.66 | 6.4 | 
7 | CC(C)Cn1c(=O)c(C(=O)Nc2cc(F)c(N3CCN(C)CC3)c(F)c2)c(O)c2ccccc21 [582(02)] | 1.1 | 1.9 | 
8 | CC(C)Cn1c(=O)c(C(=O)Nc2ccc(F)c(N3CCN(C)CC3)c2)c(O)c2ccccc21 [584(02)] | 2 | 6 | 
9 | Cc1cccnc1NC(=O)c1c(O)c2ccccc2n(Cc2ccccc2)c1=O [SSTN-408] |  |  | EC50 ([1]; listed as 408): 3.7 µM
10 | Cc1cccnc1NC(=O)c1c(O)c2ccccc2n(Cc2ccccc2)c1=O [SSTN-452] |  |  | EC50 ([1]; listed as 452): 1.6 µM
11 | CC(C)Cn1c(=O)c(C(=O)Nc2cccc(F)c2)c(O)c2c(N3CCNCC3)cccc21 [SSTN-587_HCl salt, N-(3-fluorophenyl)-4-hydroxy-1-isobutyl-2-oxo-5-(piperazin-1-yl)-1,2-dihydroquinoline-3-carboxamide hydrochloride salt] | 1.7 | 3.8 | IC50 (hNotch1ICD; [3]): 3.76 µM
12 | CC(C)Cn1c(=O)c(C(=O)Nc2cccc(F)c2)c(O)c2c(N3CCN(C)CC3)cccc21 [SSTN-588, N-(3-fluorophenyl)-4-hydroxy-1-isobutyl-5-(4-methylpiperazin-1-yl)-2-oxo-1,2-dihydroquinoline-3-carboxamide] |  |  | IC50 (hNotch1ICD; [3]): 10.3 µM
13 | CC(C)Cn1c(=O)c(C(=O)Nc2cccc(F)c2)c(O)c2c(N3CCN(C)CC3)cccc21 [SSTN-588_HCl salt, N-(3-fluorophenyl)-4-hydroxy-1-isobutyl-5-(4-methylpiperazin-1-yl)-2-oxo-1,2-dihydroquinoline-3-carboxamide hydrochloride salt] |  |  | IC50 (hNotch1ICD; [3]): 9.8 µM
14 | Cc1cccnc1NC(=O)c1c(O)c2ccccc2n(CC(C)C)c1=O [compound 513, 4-hydroxy-1-isobutyl-N-(3-methylpyridin-2-yl)-2-oxo-1,2-dihydroquinoline-3-carboxamide] |  | 11.1 | 
15 | COc1ccc2c(c1)c(O)c(C(=O)Nc1ncccc1C)c(=O)n2CC(C)C [compound 514, 4-hydroxy-1-isobutyl-6-methoxy-N-(3-methylpyridin-2-yl)-2-oxo-1,2-dihydroquinoline-3-carboxamide] |  | 13.6 | 
16 | Cc1cc(NC(=O)c2c(O)c3ccccc3n(CC(C)C)c2=O)on1 [compound 517, 4-hydroxy-1-isobutyl-N-(3-methylisoxazol-5-yl)-2-oxo-1,2-dihydroquinoline-3-carboxamide] |  |  | IC50 (hNotch1ICD; Notch1 Reporter Assay IC50, µM, 293A cells, 24 h, luciferase normalized to cell viability): 22.6 µM
17 | CC(C)Cn1c(=O)c(C(=O)Nc2ccccn2)c(O)c2ccccc21 [compound 518, 4-hydroxy-1-isobutyl-2-oxo-N-(pyridin-2-yl)-1,2-dihydroquinoline-3-carboxamide] |  | 18.7 | 
18 | CC(C)Cn1c(=O)c(C(=O)Nc2ncccc2O)c(O)c2ccccc21 [compound 519, 4-hydroxy-N-(3-hydroxypyridin-2-yl)-1-isobutyl-2-oxo-1,2-dihydroquinoline-3-carboxamide] |  | 17.8 | 
19 | CC(C)Cn1c(=O)c(C(=O)Nc2cc(F)ccn2)c(O)c2ccccc21 [compound 522, N-(4-fluoropyridin-2-yl)-4-hydroxy-1-isobutyl-2-oxo-1,2-dihydroquinoline-3-carboxamide] | 6 | 17.2 | 

Row | SMILES | EC50 ([1]; Homo sapiens, OE33, 168 h) [µM] | IC50 (hNotch1ICD; [2]) [µM] | also measured
20 | CC(C)Cn1c(=O)c(C(=O)Nc2ccon2)c(O)c2ccccc21 [compound 525, 4-hydroxy-1-isobutyl-N-(isoxazol-3-yl)-2-oxo-1,2-dihydroquinoline-3-carboxamide] | 7.4 | 13.8 | 
21 | CC(C)Cn1c(=O)c(C(=O)Nc2cc(Cl)ccn2)c(O)c2ccccc21 [compound 526, N-(4-chloropyridin-2-yl)-4-hydroxy-1-isobutyl-2-oxo-1,2-dihydroquinoline-3-carboxamide] |  | 20.3 | 
22 | CC(C)Cn1c(=O)c(C(=O)Nc2cc(N3CCOCC3)ccn2)c(O)c2ccccc21 [compound 527, 4-hydroxy-1-isobutyl-N-(4-morpholinopyridin-2-yl)-2-oxo-1,2-dihydroquinoline-3-carboxamide] |  | 8.5 | 
23 | CC(C)Cn1c(=O)c(C(=O)Nc2ncco2)c(O)c2ccccc21 [compound 528, 4-hydroxy-1-isobutyl-N-(oxazol-2-yl)-2-oxo-1,2-dihydroquinoline-3-carboxamide] |  | 14.3 | 
24 | COc1ccnc(NC(=O)c2c(O)c3ccccc3n(CC(C)C)c2=O)c1 [compound 532, 4-hydroxy-1-isobutyl-N-(4-methoxypyridin-2-yl)-2-oxo-1,2-dihydroquinoline-3-carboxamide] |  | 12.4 | 
25 | CC(C)Cn1c(=O)c(C(=O)Nc2ccn(C)n2)c(O)c2ccccc21 [compound 533, 4-hydroxy-1-isobutyl-N-(1-methyl-1H-pyrazol-3-yl)-2-oxo-1,2-dihydroquinoline-3-carboxamide] |  | 22.5 | 
26 | CC(C)Cn1c(=O)c(C(=O)Nc2cnn(C)c2)c(O)c2ccccc21 [compound 534, 4-hydroxy-1-isobutyl-N-(1-methyl-1H-pyrazol-4-yl)-2-oxo-1,2-dihydroquinoline-3-carboxamide] | 2.5 | 11.3 | 
27 | Cc1ccccc1NC(=O)c1c(O)c2ccccc2n(CC(C)C)c1=O [compound 535, 4-hydroxy-1-isobutyl-2-oxo-N-(o-tolyl)-1,2-dihydroquinoline-3-carboxamide] |  | 5.9 | 
28 | CC(C)Cn1c(=O)c(C(=O)Nc2ccccc2F)c(O)c2ccccc21 [compound 537, N-(2-fluorophenyl)-4-hydroxy-1-isobutyl-2-oxo-1,2-dihydroquinoline-3-carboxamide] |  | 5.1 | 
29 | CC(C)Cn1c(=O)c(C(=O)Nc2cccc(F)c2)c(O)c2ccccc21 [compound 538, N-(3-fluorophenyl)-4-hydroxy-1-isobutyl-2-oxo-1,2-dihydroquinoline-3-carboxamide] | 1.7 | 9.6 | 
30 | CC(C)Cn1c(=O)c(C(=O)Nc2ccc(F)cc2)c(O)c2ccccc21 [compound 539, N-(4-fluorophenyl)-4-hydroxy-1-isobutyl-2-oxo-1,2-dihydroquinoline-3-carboxamide] |  | 6.6 | 
31 | Cc1ncccc1NC(=O)c1c(O)c2ccccc2n(CC(C)C)c1=O [compound 540, 4-hydroxy-1-isobutyl-N-(2-methylpyridin-3-yl)-2-oxo-1,2-dihydroquinoline-3-carboxamide] |  | 18.5 | 
32 | CC(C)Cn1c(=O)c(C(=O)NCc2ccco2)c(O)c2ccccc21 [compound 541, N-(furan-2-ylmethyl)-4-hydroxy-1-isobutyl-2-oxo-1,2-dihydroquinoline-3-carboxamide] |  | 15.1 | 
33 | Cc1cc(NC(=O)c2c(O)c3ccccc3n(CC(C)C)c2=O)n[nH]1 [compound 549, 4-hydroxy-1-isobutyl-N-(5-methyl-1H-pyrazol-3-yl)-2-oxo-1,2-dihydroquinoline-3-carboxamide] |  | 10.1 | 
34 | Cc1ccncc1NC(=O)c1c(O)c2ccccc2n(CC(C)C)c1=O [compound 550, 4-hydroxy-1-isobutyl-N-(4-methylpyridin-3-yl)-2-oxo-1,2-dihydroquinoline-3-carboxamide] |  | 20.8 | 
35 | Cc1cnccc1NC(=O)c1c(O)c2ccccc2n(CC(C)C)c1=O [compound 551, 4-hydroxy-1-isobutyl-N-(3-methylpyridin-4-yl)-2-oxo-1,2-dihydroquinoline-3-carboxamide] |  | 6.7 | 
36 | CC(C)Cn1c(=O)c(C(=O)Nc2cccc(N3CCOCC3)c2)c(O)c2ccccc21 [compound 554, 4-hydroxy-1-isobutyl-N-(3-morpholinophenyl)-2-oxo-1,2-dihydroquinoline-3-carboxamide] |  | 4.3 | 
37 | Cc1cccnc1NC(=O)c1c(O)c2c(Br)cccc2n(CC(C)C)c1=O [compound 563, 5-bromo-4-hydroxy-1-isobutyl-N-(3-methylpyridin-2-yl)-2-oxo-1,2-dihydroquinoline-3-carboxamide] |  | 8 | 
